Reference: patent US4035507A, “Novel, transient pro-drug forms of L-DOPA to treat Parkinson's disease” (Interx Research Corporation, priority 1976, dated 1977)

Key:
[1] = Coutinaho, Spiegel et al. (1971); Weiss and Rossi (1963); cited from earlier work
[2] = Blood concentration of L-DOPA following oral administration of L-DOPA or an L-DOPA derivative to Beagle dogs; details: three Beagle dogs; for L-DOPA at the peak / area under the curve / time for reaching the peak: L-DOPA in blood after oral administration; for [L-DOPA] (μg/ml) at time (hours) 0.5 / [L-DOPA] (μg/ml) at time (hours) 1.0 / [L-DOPA] (μg/ml) at time (hours) 2.0 / [L-DOPA] (μg/ml) at time (hours) 4.0 / [L-DOPA] (μg/ml) at time (hours) 6.0 / [L-DOPA] (μg/ml) at time (hours) 3.0 / [L-DOPA] (μg/ml) at time (hours) 1.5: blood; for [L-DOPA] (μg/ml) at time (hours) 0.5: 0.5 hours after oral administration of 0.1 of L-DOPA or equivalent amount of derivative; for [L-DOPA] (μg/ml) at time (hours) 1.0: 1.0 hours after oral administration of 0.1 of L-DOPA or equivalent amount of derivative; for [L-DOPA] (μg/ml) at time (hours) 2.0: 2.0 hours after oral administration of 0.1 of L-DOPA or equivalent amount of derivative; for [L-DOPA] (μg/ml) at time (hours) 4.0: 4.0 hours after oral administration of 0.1 of L-DOPA or equivalent amount of derivative; for [L-DOPA] (μg/ml) at time (hours) 6.0: 6.0 hours after oral administration of 0.1 of L-DOPA or equivalent amount of derivative; for [L-DOPA] (μg/ml) at time (hours) 3.0: 3.0 hours after oral administration of 0.1 of L-DOPA or equivalent amount of derivative; for [L-DOPA] (μg/ml) at time (hours) 1.5: 1.5 hours after oral administration of 0.1 of L-DOPA or equivalent amount of derivative;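 for all read-outs here: dogs of both sexes, 12 to 14 Kg body weight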
Description: Reference to (a) refers to the values obtained from three Beagle dogs for each compound tested, the Beagle dogs being of both sexes and weighing from 12 to 14 Kg.
Reference to [L-DOPA] refers to the concentration of L-DOPA

L-DOPA at the peak [2]	area under the curve [2]	time for reaching the peak [2]	[L-DOPA] (μg/ml) at time (hours) 0.5 [2]	[L-DOPA] (μg/ml) at time (hours) 1.0 [2]	[L-DOPA] (μg/ml) at time (hours) 2.0 [2]	[L-DOPA] (μg/ml) at time (hours) 4.0 [2]	[L-DOPA] (μg/ml) at time (hours) 6.0 [2]	[L-DOPA] (μg/ml) at time (hours) 3.0 [2]	[L-DOPA] (μg/ml) at time (hours) 1.5 [2]	Compound	half-life of L-DOPA in the bloodstream [1]
0.9 µg/mL	2.6 µg/h/mL	1.8 h	0.14 µg/mL	0.64 µg/mL	0.87 µg/mL	0.22 µg/mL	0.11 µg/mL	–	–	N[C@@H](Cc1ccc(O)c(O)c1)C(=O)O [(0), 3,4-dihydroxy-L-phenylalanine, reference compound]	approximately 45 minutes
1.6 µg/mL	–	–	–	–	0.39 µg/mL	–	–	0.12 µg/mL	–	COC(=O)[C@@H](N)Cc1ccc(OC(C)=O)c(OC(C)=O)c1.Cl [Compound (I), 3,4-diacetyloxy-L-phenylalanine-methyl ester, HCl]	–
2.3 µg/mL	5.96 µg/h/mL	0.5 h	1.71 µg/mL	1.30 µg/mL	0.55 µg/mL	0.14 µg/mL	0.05 µg/mL	0.20 µg/mL	1.08 µg/mL	CC(=O)Oc1ccc(C[C@H](N)C(=O)OCc2ccccc2)cc1OC(C)=O.Cl [Compound (II), 3,4-diacetyloxy-L-phenylalanine-benzyl ester hydrochloride]	–
2.4 µg/mL	7.25 µg/h/mL	0.75 h	1.34 µg/mL	1.95 µg/mL	0.43 µg/mL	0.13 µg/mL	0.02 µg/mL	0.27 µg/mL	1.21 µg/mL	CC(=O)Oc1ccc(C[C@H](NC(=O)CN)C(=O)O)cc1OC(C)=O.Cl [Compound (III), glycyl-3,4-diacetyloxy-L-phenylalanine-hydrochloride]	–
1.7 µg/mL	3.38 µg/h/mL	0.80 h	0.79 µg/mL	1.17 µg/mL	0.33 µg/mL	0.02 µg/mL	0 µg/mL	0.08 µg/mL	0.51 µg/mL	COC(=O)[C@H](Cc1ccc(OC(C)=O)c(OC(C)=O)c1)NC(=O)CN.Cl [Compound (IV), glycyl-3,4-diacetyloxy-L-phenylalanine-methyl ester hydrochloride]	–
1.8 µg/mL	5.30 µg/h/mL	1.2 h	0.26 µg/mL	1.30 µg/mL	0.80 µg/mL	0.03 µg/mL	0 µg/mL	0.23 µg/mL	1.62 µg/mL	CC(=O)Oc1ccc(C[C@H](N)C(=O)NCC(=O)O)cc1OC(C)=O.Cl [Compound (V), 3,4-diacetyloxy-L-phenylalanyl-glycine hydrochloride]	–
